For two compounds, IC50 results are on record in BindingDB's records for doi:10.1016/j.bmcl.2018.11.028 (Kumamoto University, 2019).

Assay [1] can be described thus: Inhibition of 20s constitutive proteasome beta1 caspase-like activity in human erythrocytes using […] as substrate preincubated for 10 mins followed by substrate addition and measured after 6 hrs by fluorescence assay.
Assay [2] can be described thus: Inhibition of 20s constitutive proteasome beta2 trypsin-like activity in human erythrocytes using Boc-Leu-Arg-Arg-MCA as substrate preincubated for 10 mins followed by substrate addition and measured after 6 hrs by fluorescence assay.

`C1=C\CCc2cc3c[n+](c2)CCCC/C=C\CC[C@@H]2CN(CCCC/1)CC[C@@H]32`: inhibition in assay [1] was half-maximal at 4.7 µM (IC50).

`C1=C2CN3CCCC/C=C\CC[C@@H]4CN(CCCC/C=C\CC[C@H]1C3)CC[C@@H]24`: the IC50 came to 0.48 µM in assay [1] and 6.3 µM in assay [2].
